How the values were obtained:
S. aureus NCTC 8325 = format: cell-based, Staphylococcus aureus
Experimental: The effect of auranofin on the growth of S. aureus was also assessed using a time kill assay. Exponentially growing S. aureus NCTC 8325 were diluted to approximately 5×10^6 cfu/mL in tryptic soy broth (TSB) and auranofin, rifampicin or both auranofin and rifampicin were added. Auranofin was added to cultures at a concentration of 5 μg/mL; 1 μg/mL or 0.5 μg/mL. Rifampicin was added to cultures at a concentration of 1 μg/mL or 0.2 pig/mL, while cultures with auranofin and rifampicin had 0.5 μg/mL auranofin and 0.2 μg/mL rifampicin. Cultures were sampled at various time points and colony forming units determined.

existing biofilms = test: Action against existing biofilms (general description); format: cell-based; conditions: for concentration for action against existing biofilms (not observed even at): organism not stated
biofilm formation = test: Inhibition of biofilm formation (general description); format: cell-based; conditions: organism not stated
[1] = tested on: preformed S. aureus NCTC 8325 biofilms; test: Preformed biofilm assay (crystal violet); format: cell-based, Staphylococcus aureus
Experimental: The effect of auranofin, alone and in combination with antibiotics, on preformed S. aureus biofilms was assessed. Briefly S. aureus NCTC 8325 was plated in 96-well plates as described in Example 2 and incubated 37° C. for 24 hours. Biofilms were then washed 3 times with TSB and 150 μL of fresh TSB and 3 μL of auranofin at the appropriate dilution in DMSO was added to the wells in duplicate. Plates were again sealed with AeraSeal™ and reincubated 37° C. for 24 hours. Biofilm was then detected as described in above.

[2] = tested on: A. baumannii D2 biofilm formation; test: Biofilm prevention assay (crystal violet); format: cell-based, Acinetobacter baumannii; conditions: A. baumannii D2, 24 hours
Experimental: The effect of auranofin on the formation of A. baumannii D2 biofilm formation was assessed using the biofilm prevention assay described above in Example 2 with slight modifications. Briefly, A. baumannii D2 were grown overnight in LB media and diluted 1/100 before 150 μL was added to the wells of a flat bottomed 96-well plate. Three microliters of auranofin or gentamicin at the appropriate dilution in DMSO was added to the wells in duplicate. Controls included a positive control with bacteria alone with media and 2% DMSO and a negative (no bacteria) control with media containing 2% DMSO. Plates were sealed with AeraSeal™ and incubated at 37° C. for 24 hours. The plates were then washed three times with PBS, dried at 60° C. for 1 hour and stained with crystal violet for 1 hour. The plates were again washed three times with water, dried and scanned prior to the addition of 33% acetic acid to re-solubilize the crystal violet stain bound to the adherent cells. Absorbance was then measured at 595 nm and expressed as a percentage of the bacteria only control.

[3] = tested on: A. baumannii (D2, A94 and ATCC 17978); test: Growth assay in LB, absorbance 595 nm; format: cell-based, Acinetobacter baumannii
Experimental: In the first growth assay, three strains of A. baumannii (D2, A94 and ATCC 17978) were cultured in LB in the presence of 1.25, 2.5, 5, 10, 20 or 40 μg/mL auranofin or 1.56, 3.13, 6.25, 12.5, 25, 50, 100 or 200 μg/mL gentamicin for 22-24 hours. Bacterial strains were also grown in the absence of antibiotic, and these were used as controls. The bacterial growth was determined by the measurement of absorbance at 595 nm using a Synergy HT Bio-Tek plate reader. The growth of A. baumannii was then assessed as a percentage of the positive control (bacteria alone grown in the presence of 2% DMSO).
A second growth assay was then performed to determine the effect of a combination of auranofin and gentamicin on bacterial growth. Briefly, A. baumannii was cultured in LB medium for 22-24 hours in the presence of […], 2.5, 5, 10, 20 or 40 μg/ml auranofin and 0, 30, 100, 300 or 1000 μg/ml gentamicin before growth was determined by the measurement of absorbance at 595 nm using a Synergy HT Bio-Tek plate reader. The growth of A. baumannii was then assessed as a percentage of the positive control (bacteria alone grown in the presence of 2% DMSO).

[4] = tested on: S. aureus (strain SH1000-GFP) in THP-1 cells; test: S. aureus infection of THP-1 cells (fluorescence microscopy); format: cell-based, Staphylococcus aureus; conditions: 1 μg/ml in 0.5% DMSO, moi 3, over 24 h
Experimental: THP-1, a human monocytic cell line was infected with S. aureus (strain SH1000-GFP) at a multiplicity of infection of 3 for 1.5. hours. Cells were washed 3 times and auranofin (1 μg/ml in 0.5% DMSO) or 0.5% DMSO was added. Cells were observed under a fluorescent microscope at various time points post infection (FIG. 3).

[5] = tested on: rifampicin-resistant S. aureus mutants; format: cell-based, Staphylococcus aureus; conditions: discs with 4 μg (4 μg each), TSB agar, overnight, data not shown
[6] = tested on: S. aureus NCTC 8325 and clinical isolates; test: Disc assay for resistance development; format: cell-based, Staphylococcus aureus; conditions: 4 μg disc, TSB agar, overnight
Experimental: Bacteria were plated on TSB agar. 3M discs (impregnated with 4 μg auranofin, 4 μg rifampicin or DMSO alone) were placed on top of the agar. The plates were incubated overnight at 37° C. and any zone of bacterial inhibition was measured. Any bacterial colonies growing within this zone of inhibition were picked and subsequently analysed for potential resistance against the appropriate compound/antibiotic using a growth or biofilm formation assay as described above. […] These S. aureus Rif mutants were tested in a growth assay and their rifampicin resistance confirmed.

S. aureus = test: Resistance frequency assay; format: cell-based, Staphylococcus aureus; conditions: CaMHB broth with serial dilutions of the compound
Experimental: Briefly, S. aureus was streaked out on TSB agar plates containing 1×, 1.5×, 2× and 4× the minimum inhibitory concentration of auranofin (1 μg/mL). Any potential mutants were picked and assessed for resistance. The potentially resistant bacteria were cultured overnight in CaMHB broth containing serial dilutions of auranofin, rifampicin or lincomycin and assessed for their resistance profile by measuring the growth of the bacteria in a growth assay and comparing it to the control. “Wild-type” bacteria that had not originally been grown in the agar plates and which were not resistant were also included in the growth assay. “Rif resistant cells” were picked from the rifampicin zone of inhibition and potential “Au resistant” mutants were picked from the edge of the auranofin zone of inhibition and tested.

[7] = tested on: E. coli K12 single-knockout mutants; test: Growth assay of Keio library redox mutants; format: cell-based
Experimental: To determine whether auranofin acts on the antioxidant pathway mutants from the Keio library, containing single-knockout mutants for all non-essential genes of E. coli K12 were tested in a growth assay.
Auranofin stock solution (20 mg/ml) in dimethyl sulfoxide (DMSO) was serially diluted in DMSO and each dilution added in duplicate to a 96-well plate to a final DMSO concentration of 2% (v/v). An overnight culture of E. coli mutants and wild type were diluted 1:100 in Luria Bertani (LB) broth and 150 μl of this sample was added to each well of the 96-well plates. Control wells included an ‘untreated’ control with bacteria in the presence of 2% DMSO and a negative sample (containing […] growth media in the presence of 2% DMSO). Plates were incubated at […] for 22-24 h and bacterial growth assessed by absorbance at a wavelength of 595 nm. The minimum inhibitory concentration (MIC) was defined as the lowest concentration of compound that inhibited growth compared to the no-treatment control.

[8] = tested on: multi-drug resistant clinical isolates of K. pneumoniae; format: cell-based, Klebsiella pneumoniae; conditions: 100 μg disc; C204742, C68761, C188681, C71173
Experimental: The ability of auranofin to inhibit the growth of four multi-drug resistant clinical isolates of K. pneumoniae was assessed. The clinical isolates were C204742 (resistant to ampicillin and gentamicin), C68761 (resistant to ampicillin, trimethoprim and sulfamethoxazole), C188681 (resistant to ampicillin, trimethoprim, sulfamethoxazole, ceftazidime, tobramycin and ciprofloxacin) and C71173 (resistant to ampicillin, trimethoprim, sulfamethoxazole, ceftazidime, tobramycin, gentamicin and ciprofloxacin). These strains have been previously described in Chowdhury et al., (2011) Antimicrob Agents Chemother 55: 3140-3149.
Bacterial colonies were picked and diluted 1/1000 in Luria broth (LB). 100 μL of each dilution was then streaked out on LB plates. Discs impregnated with 100 μg auranofin or 100 μg gentimicin or auranofin and gentamicin (100 μg each) were placed on top of the agar. The plates were incubated overnight at 37° C. and any zone of bacterial inhibition was noted.

CO[C@H]1/C=C/O[C@@]2(C)Oc3c(C)c(O)c4c(O)c(c(/C=N/N5CCN(C)CC5)c(O)c4c3C2=O)NC(=O)/C(C)=C\C=C\[C@H](C)[C@H](O)[C@@H](C)[C@@H](O)[C@@H](C)[C@H](OC(C)=O)[C@@H]1C [rifampicin]
time after which bacterial growth starts to increase (development of resistance) (S. aureus NCTC 8325; 0.2 μg/mL and 1 μg/mL rifampicin): about 10 hours

CC(=O)NC[C@H]1CN(c2ccc(N3CCOCC3)c(F)c2)C(=O)O1 [linezolid]
shift between inhibition of biofilm formation and action against existing biofilms (existing biofilms; at least): ≥ 15 fold | concentration for action against existing biofilms (not observed even at) (existing biofilms): > 100 µg/mL | concentration at which inhibition of biofilm formation is observed (biofilm formation): ~6 µg/mL

gentamicin
effect on biofilm mass, antibiotic alone ([1]; 0.9 or 3 μg/mL rifampicin, 25 or 75 μg/mL gentamicin): no effect on biofilm mass | concentration that completely prevented biofilm formation [2]: > 20 µg/mL | susceptibility in growth assay ([3]; A. baumannii A94): partially resistant | susceptibility in growth assay ([3]; A. baumannii ATCC 17978): susceptible | susceptibility in growth assay ([3]; A. baumannii D2): completely resistant

CC[P](CC)(CC)=[Au][S][C@@H]1O[C@H](COC(C)=O)[C@@H](OC(C)=O)[C@H](OC(C)=O)[C@H]1OC(C)=O [auranofin, 2,3,4,6-tetra-o-acetyl-1-thio-J-D-glucopyranosato-S-(triethylphosphine) gold]
intracellular and extracellular S. aureus growth in infected THP-1 cells [4]: inhibited intracellular and extracellular S. aureus growth | zone of inhibition on rifampicin-resistant mutants [5]: Zones of inhibition formed | bacterial colonies growing within the zone of inhibition (resistance) [6]: No growth was observed | zone of inhibition ([6]; NCTC 8325 and clinical isolates incl. MRSA): produced zones of inhibition | effect on the biofilm, compound alone ([1]; 5 μg/mL auranofin alone or 1.5 μg/mL rifampicin alone): only a partial effect | effect on existing S. aureus biofilm ([1]; 20 μg/mL and 40 μg/mL auranofin): essentially eliminating the biofilm | effect on existing S. aureus biofilms (crystal violet staining) ([1]; 24 hours treatment, FIG. 5): dose-dependent inhibitory effect | development of resistant bacteria over time (S. aureus NCTC 8325; 0.5, 1 or 5 μg/mL auranofin, or 0.5 μg/mL auranofin with 0.2 μg/mL rifampicin): no resistant bacteria were observed | growth inhibitory effect in time kill assay (S. aureus NCTC 8325; auranofin 0.5, 1 or 5 μg/mL, TSB): concentration- and time-dependent | resistance of potential mutants picked from agar plates, growth assay (S. aureus): none of the potentially auranofin-resistant bacteria picked from agar plates were actually resistant | effect of depletion on sensitivity to auranofin ([7]; depletion of gor): little effect | sensitivity to auranofin compared to the wild-type strain ([7]; mutant lacking gsha): more sensitive | sensitivity to auranofin compared to the wild-type strain ([7]; mutant lacking gshb): more sensitive | growth inhibition, disc assay [8]: shows inhibitory activity against all four multi-drug resistant clinical isolates tested

CC[C@H]1OC(=O)[C@H](C)[C@@H](O[C@H]2C[C@@](C)(OC)[C@@H](O)[C@H](C)O2)[C@H](C)[C@@H](O[C@@H]2O[C@H](C)C[C@H](N(C)C)[C@H]2O)[C@](C)(O)C[C@@H](C)C(=O)[C@H](C)[C@@H](O)[C@]1(C)O [erythromycin]
concentration for action against existing biofilms (not observed even at) (existing biofilms): > 3 µg/mL | concentration at which inhibition of biofilm formation is observed (biofilm formation): 0.1 to 0.3 µg/mL

— patent US20180020669A1, “Methods for the Inhibition and Dispersal of Biofilms” (priority 2015, published 2018)
